Measurements published in US20250332173A1, “COMPOUNDS AND METHODS FOR MODULATING NUCLEIC ACID SPLICING” (REMIX THERAPEUTICS INC., priority 2021, published 2025).
pIC50: −log10 of the molar value.

Assays:
[1] = tested on: SMN2 mRNA; test: RT-qPCR splicing assay, SMN2 canonical junction (CJ) mRNA; type: cell-based, human; conditions: Homo sapiens; Table 5 panel; canonical junction qPCR; compound concentration having 50% response in CJ decrease; read-out: SMN2 IC50 (decrease in CJ mRNA levels)
In short: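 A673 or K562 cells were treated for 24 h at 37 °C with compound in 11-point 3-fold dilution (top 10 uM final, DMSO ≤0.25%). Lysates then went to one-step RT-qPCR measuring canonical-junction mRNA, normalized to GAPDH, GUSB or PPIA.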

[2] = tested on: MYB; test: HiBiT protein abundance assay, MYB HiBiT K562 cell line; type: cell-based, human; conditions: HiBiT K562 cell line, 24 hours, top dose 10 μM; read-out: Effect on protein abundance, MYB (IC50 category)
In short: (§1)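 Tagged-protein abundance measured by split-NanoBiT luminescence after lysis, following 24 h compound exposure (37° C; 10 μM top, 3-fold, 10 points; DMSO ≤0.25%) of HiBiT knock-in K562 cells. Percent response vs DMSO and unmodified-cell controls; 4-parameter logistic interpolation at 50% gave IC50.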

[3] = tested on: HTT; test: HiBiT protein abundance assay, HTT HiBiT K562 cell line; type: cell-based, human; conditions: HiBiT K562 cell line, 24 hours, top dose 10 μM; read-out: Effect on protein abundance, HTT (IC50 category)
In short: as §1

[4] = tested on: K562 (human chronic myelogenous leukemia) cells; test: Cell Titer Glo 2.0 cell viability assay; type: cell-based; conditions: Homo sapiens, K562, 72 h, K562 cells, 72 hours, Cell Titer Glo 2.0; read-out: K562 GI50
Description: Compounds described herein were screened for toxicity in K562 (human chronic myelogenous leukemia) cells using a Cell Titer Glo 2.0 assay.
Cells were plated at 500 cells/well (K562 cells) in 45 μL of IMDM supplemented with 1000 FBS in a 384-well opaque plate. Wells containing only medium were used as a blank control. Test compounds (e.g., compounds ofFormula (I), (II), (III), (IV), (V), (VI), (VII), (VIII), and (IX)) were first serially diluted in DMSO then diluted 1:100 with IMDM+10% FBS. The final concentration of DMSO was 0.1% in each well. The cells were incubated for 72 hours at 37° C. and 500 CO2 before assaying with Cell Titer Glo 2.0 reagent.

Cc1cn2nc(-c3cc(F)c4c(=O)n(C5CCNCC5)ccc4c3)cc(C)c2n1 [Compound 322]
pIC50 [1]: > 7.00 | pIC50 [2]: > 7.00 | pIC50 [3]: > 7.00 | GI50 [4]: < 100 nM

Cc1cn2cc(-c3cc(F)c4c(=O)n(C5CCCNCC5)cnc4c3)cc(F)c2n1 (stereo not drawn) [Compound 353, 3-(azepan-4-yl)-5-fluoro-7-{8-fluoro-2-methylimidazo[1,2-a]pyridin-6-yl}quinazolin-4-one]
pIC50 [1]: > 7.00 | pIC50 [2]: 6.00 to 7.00 | pIC50 [3]: 6.00 to 7.00 | GI50 [4]: 100 to 1000 nM

Cc1cn2cc(-c3cc(F)c4c(=O)n(C5CCNCC5(F)F)cnc4c3)cc(F)c2n1 (stereo not drawn) [Compound 339]
pIC50 [1]: 6.00 to 7.00 | pIC50 [2]: < 5.00 | pIC50 [3]: < 5.00 | GI50 [4]: > 10000 nM

Cc1ncc(-c2ccc3c(=O)n(C4CCNCC4)cnc3c2)cn1 [Compound 354, 7-(2-methylpyrimidin-5-yl)-3-(piperidin-4-yl)quinazolin-4(3H)-one]
pIC50 [1]: 5.00 to 6.00 | pIC50 [2]: 5.00 to 6.00 | pIC50 [3]: 5.00 to 6.00 | GI50 [4]: 1000 to 10000 nM

CC[C@@H]1C[C@H](n2ncc3cc(-c4cc(C)c5nc(C)cn5n4)ccc3c2=O)CCN1 [Compound 304]
pIC50 [1]: > 7.00 | pIC50 [2]: 6.00 to 7.00 | pIC50 [3]: 6.00 to 7.00 | GI50 [4]: 100 to 1000 nM

CNc1cc(-c2cc(C)c3nc(C)cn3n2)cc2ncn(C3CCNCC3)c(=O)c12 [Compound 359, 7-{2,8-dimethylimidazo[1,2-b]pyridazin-6-yl}-5-(methylamino)-3-(piperidin-4-yl)quinazolin-4-one]
pIC50 [1]: > 7.00 | pIC50 [2]: 6.00 to 7.00 | pIC50 [3]: 6.00 to 7.00 | GI50 [4]: 100 to 1000 nM

Cc1cc(-c2cnc3c(=O)n(C4CCNCC4)cnc3c2)cc2cn(C)nc12 [Compound 311]
pIC50 [1]: 6.00 to 7.00 | pIC50 [2]: 5.00 to 6.00 | pIC50 [3]: 5.00 to 6.00 | GI50 [4]: 1000 to 10000 nM

CNc1cc(-c2cc(C#N)c3nc(C)cn3c2)cc2ncn(C3CCNCC3)c(=O)c12 [Compound 363, 2-methyl-6-[5-(methylamino)-4-oxo-3-(piperidin-4-yl)quinazolin-7-yl]imidazo[1,2-a]pyridine-8-carbonitrile]
pIC50 [1]: 5.00 to 6.00 | pIC50 [2]: 5.00 to 6.00 | pIC50 [3]: < 5.00 | GI50 [4]: 1000 to 10000 nM

Cc1cn2nc(-c3ccc4c(c3)CCN(C3CCNC(C)(C)C3)C4=O)cc(C)c2n1 (stereo not drawn) [Compound 267]
pIC50 [1]: > 7.00 | pIC50 [2]: 6.00 to 7.00 | pIC50 [3]: 6.00 to 7.00 | GI50 [4]: 1000 to 10000 nM
